PubChem BioAssay (NCI)
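Assay format: 96-well plates, 48-hour exposure. The concentration for 50% growth inhibition is given as GI50. Definition used: TGI = concentration required for complete inhibition of growth.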

Assays:
Experiment in all cases: NCI anticancer screen, dose series, 48 h
[1] = test system: OVCAR-3 ovarian
[2] = test system: HCC-2998 colon
[3] = test system: NCI-H522 lung
[4] = test system: BT-549 breast
[5] = test system: SK-OV-3 ovarian
[6] = test system: K-562 leukemia
[7] = test system: MCF7 breast
[8] = test system: M14 melanoma
[9] = test system: MOLT-4 leukemia
[10] = test system: SF-539 CNS
[11] = test system: T-47D breast
[12] = test system: IGROV1 ovarian
[13] = test system: MALME-3M melanoma
[14] = test system: CAKI-1 renal
[15] = test system: SK-MEL-5 melanoma
[16] = test system: MDA-MB-435
[17] = test system: MDA-MB-231 breast
[18] = test system: HOP-62 NSCLC
[19] = test system: HT29 colon
[20] = test system: SN12C renal
[21] = test system: SW-620 colon
[22] = test system: KM12 colon
[23] = test system: NCI-H23 lung
[24] = test system: HOP-92 NSCLC
[25] = test system: 786-0 renal
[26] = test system: HS 578T breast
[27] = test system: NCI/ADR-RES ovarian
[28] = test system: HCT-116 colon
[29] = test system: A498 renal
[30] = test system: SR leukemia
[31] = test system: HCT-15 colon
[32] = test system: TK-10 renal
[33] = test system: SK-MEL-28 melanoma
[34] = test system: NCI-H460 lung
[35] = test system: UACC-62 melanoma
[36] = test system: OVCAR-4 ovarian
[37] = test system: LOX IMVI melanoma
[38] = test system: SNB-75 CNS
[39] = test system: CCRF-CEM leukemia
[40] = test system: COLO 205 colon
[41] = test system: RXF 393 renal
[42] = test system: RPMI-8226 leukemia
[43] = test system: NCI-H226 lung
[44] = test system: SK-MEL-2 melanoma
[45] = test system: ACHN renal
[46] = test system: OVCAR-5 ovarian
[47] = test system: A549 NSCLC
[48] = test system: SNB-19 CNS
[49] = test system: SF-295 CNS
[50] = test system: EKVX NSCLC
[51] = test system: UACC-257 melanoma
[52] = test system: SF-268 CNS
[53] = test system: U251 CNS
[54] = test system: PC-3 prostate
[55] = test system: HL-60(TB) leukemia
[56] = test system: DU-145 prostate
[57] = test system: UO-31 renal
[58] = test system: OVCAR-8 ovarian

## C1=C\CCCCN2CC[C@H]3[C@H](CCCC/C=C\CCCN4C[C@@H](CCCCC/1)C[C@@H]3C4)C2
[1]
  GI50: 10.8 µM
  TGI: 23.3 µM
[2]
  GI50: 2.58 µM
  TGI: 7.6 µM
[3]
  GI50: 12.6 µM
  TGI: 28.5 µM
[4]
  GI50: 13.4 µM
  TGI: 27.3 µM
[5]
  GI50: 13.3 µM
  TGI: 26.2 µM
[6]
  GI50: 2.37 µM
[7]
  GI50: 3.58 µM
  TGI: 15.1 µM
[8]
  GI50: 1.77 µM
  TGI: 3.44 µM
[9]
  GI50: 3.67 µM
  TGI: 17.4 µM
[10]
  GI50: 3.24 µM
  TGI: 11.5 µM
[11]
  GI50: 10 µM
  TGI: 27.4 µM
[12]
  GI50: 9.27 µM
  TGI: 23.1 µM
[13]
  GI50: 2.13 µM
  TGI: 5.43 µM
[14]
  GI50: 5.13 µM
  TGI: 14.1 µM
[15]
  GI50: 4.75 µM
  TGI: 16.7 µM
[16]
  GI50: 1.73 µM
  TGI: 3.26 µM
[17]
  GI50: 6.03 µM
  TGI: 19.1 µM
[18]
  GI50: 15.7 µM
  TGI: 29.8 µM
[19]
  GI50: 3.28 µM
  TGI: 12.9 µM
[20]
  GI50: 11.6 µM
  TGI: 23.9 µM
[21]
  GI50: 6.96 µM
  TGI: 19.4 µM
[22]
  GI50: 9.05 µM
  TGI: 21.5 µM
[23]
  GI50: 14.3 µM
  TGI: 30.2 µM
[24]
  GI50: 4.04 µM
  TGI: 20.1 µM
[25]
  GI50: 12.5 µM
  TGI: 25.9 µM
[26]
  GI50: 5.22 µM
  TGI: 15.4 µM
[27]
  GI50: 13.8 µM
  TGI: 28.8 µM
[28]
  GI50: 4.33 µM
  TGI: 20.8 µM
[29]
  GI50: 6.31 µM
  TGI: 21.4 µM
[30]
  GI50: 1.85 µM
  TGI: 4.93 µM
[31]
  GI50: 2.22 µM
  TGI: 7.77 µM
[32]
  GI50: 2.98 µM
  TGI: 12.4 µM
[33]
  GI50: 1.82 µM
  TGI: 3.35 µM
[34]
  GI50: 5.58 µM
  TGI: 18.1 µM
[35]
  GI50: 13.2 µM
  TGI: 25.9 µM
[36]
  GI50: 8.84 µM
  TGI: 27.5 µM
[37]
  GI50: 4.3 µM
  TGI: 14.8 µM
[38]
  GI50: 3.99 µM
  TGI: 18.9 µM
[39]
  GI50: 3.64 µM
  TGI: > 22.6 µM
[40]
  GI50: 2.25 µM
  TGI: 5.75 µM
[41]
  GI50: 2.72 µM
  TGI: 8.17 µM
[42]
  GI50: 2.06 µM
  TGI: 6.16 µM
[43]
  GI50: 13.5 µM
  TGI: 27.7 µM
[44]
  GI50: 10.4 µM
  TGI: 26.3 µM
[45]
  GI50: 2.8 µM
  TGI: 10.5 µM
[46]
  GI50: 12.5 µM
  TGI: 25.5 µM
[47]
  GI50: 12.1 µM
  TGI: 26.8 µM
[48]
  GI50: 16.4 µM
  TGI: 30.5 µM
[49]
  GI50: 5.3 µM
  TGI: 12.1 µM
[50]
  GI50: 11.8 µM
  TGI: 25 µM
[51]
  GI50: 1.74 µM
  TGI: 3.5 µM
[52]
  GI50: 13.6 µM
  TGI: 26.8 µM
[53]
  GI50: 4.25 µM
  TGI: 16.5 µM
[54]
  GI50: 14 µM
  TGI: 36.6 µM
[55]
  GI50: 2.77 µM
  TGI: 10.8 µM
[56]
  GI50: 11.7 µM
  TGI: 23.9 µM
[57]
  GI50: 4.35 µM
  TGI: 10.5 µM
[58]
  GI50: 10.8 µM
  TGI: 25.3 µM
